# Experimental data published in paper PMC13429874, “ABHD2 activity is not required for the non-genomic action of progesterone on human sperm” (Human Reproduction (Oxford, England), 2026).
# Entries after “also recorded” stand apart in the source; their conditions may differ.
# Experiments:
# [1] = target: T1, full-length human ABHD2 (ABHD2^FL) (Homo sapiens, UniProt P08910); experiment: ABHD2^FL enzymatic activity assay with 7-HCA substrate; type: biochemical; settings: Supplementary Table S2; read-out: IC50 measured in ABHD2^FL in the 7-HCA Assay
# T1 construct: TEV site-eGFP-8xHis (C, cleaved yes); made in house; host or cells: SF9 insect cells (baculovirus)
# T1 sequence (P08910 1-425): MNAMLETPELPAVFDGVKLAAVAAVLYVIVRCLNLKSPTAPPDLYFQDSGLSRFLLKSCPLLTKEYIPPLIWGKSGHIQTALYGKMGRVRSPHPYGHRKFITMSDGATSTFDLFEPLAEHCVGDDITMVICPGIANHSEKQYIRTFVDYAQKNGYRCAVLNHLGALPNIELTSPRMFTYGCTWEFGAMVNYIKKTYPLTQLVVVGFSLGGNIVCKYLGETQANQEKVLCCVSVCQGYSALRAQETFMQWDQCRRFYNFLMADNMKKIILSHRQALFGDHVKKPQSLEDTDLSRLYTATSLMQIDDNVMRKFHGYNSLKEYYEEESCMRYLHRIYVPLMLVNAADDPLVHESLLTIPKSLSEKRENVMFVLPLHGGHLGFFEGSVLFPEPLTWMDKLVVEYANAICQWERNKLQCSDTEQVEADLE
# ABHD2^L33–E425 = target: T2, ABHD2^L33–E425 (Homo sapiens, UniProt P08910); experiment: Differential scanning fluorimetry (DSF) with purified ABHD2^L33–E425; type: binding
# T2 construct: expression for ABHD2 amino acids L33–E425, in which a predicted transmembrane domain (amino acids 1–32) is removed; His6-FLAG (N); made in house; host or cells: E. coli BL21(DE3)-R3-pRARE2
# T2 sequence (P08910 33-425): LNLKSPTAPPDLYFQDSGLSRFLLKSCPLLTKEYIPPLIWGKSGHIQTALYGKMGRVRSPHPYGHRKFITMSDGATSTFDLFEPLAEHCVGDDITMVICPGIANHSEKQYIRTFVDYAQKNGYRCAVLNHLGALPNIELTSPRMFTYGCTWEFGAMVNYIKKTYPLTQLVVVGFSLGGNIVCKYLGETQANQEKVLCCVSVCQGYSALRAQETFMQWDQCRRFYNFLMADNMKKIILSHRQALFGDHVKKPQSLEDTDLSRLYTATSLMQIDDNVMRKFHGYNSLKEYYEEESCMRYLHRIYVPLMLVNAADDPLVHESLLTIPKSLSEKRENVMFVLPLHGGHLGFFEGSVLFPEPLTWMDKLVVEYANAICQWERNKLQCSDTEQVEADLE
# human ABHD11 = target: T3, human ABHD11 (Homo sapiens, UniProt Q8NFV4); experiment: ABHD11 colorimetric assay with p-nitrophenyl butyrate; type: biochemical; settings: 10 µM compound, 500 µM p-NPB
# T3 construct: residues V34—V315 of human ABHD11; His6-TEV site (N); made in house; host or cells: E. coli
# T3 sequence (Q8NFV4 25-306 limits assumed): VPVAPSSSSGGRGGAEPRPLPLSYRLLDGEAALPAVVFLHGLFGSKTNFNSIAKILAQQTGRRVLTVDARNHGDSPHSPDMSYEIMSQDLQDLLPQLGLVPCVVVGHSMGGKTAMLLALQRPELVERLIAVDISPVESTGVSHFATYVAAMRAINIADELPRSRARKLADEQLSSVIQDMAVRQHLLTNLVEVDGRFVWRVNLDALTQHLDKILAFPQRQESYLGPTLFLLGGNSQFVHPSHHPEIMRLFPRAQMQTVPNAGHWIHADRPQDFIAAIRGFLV
# Protocol: Enzymatic activities of ABHD10 and ABHD11 were measured in a colorimetric assay using p-nitrophenyl butyrate (p-NPB) as substrate. Enzymes at 1500 nM ABHD10 and 125 nM ABHD11 in 20 mM HEPES pH 7.5, 150 mM NaCl, and 2% (v/v) DMSO were pre-incubated in 96-well plates with 50 µM test compound for 30 min at 4°C. Plates were then equilibrated at 37°C for 2 min, and reactions were initiated by adding 160 µl of pre-warmed substrate solution (same buffer with 625 µM p-NPB) to a total volume of 200 µl, yielding final assay concentrations of 300 nM ABHD10, 25 nM ABHD11, and 500 µM pNPB. The substrate solution was prepared immediately before addition to the enzyme mixtures. Absorbance at 405 nm was recorded on a SpectraMax iD3 plate reader (Molecular Devices) for 20 min with continuous monitoring at 30 s intervals.
# human sperm = experiment: Sperm hyperactivation assay (CASA); type: cell-based; settings: 10 µM compound, 30 min
# Protocol: Sperm hyperactivation was assessed in human sperm purified by density gradient centrifugation. Semen samples (n = 7) were allowed to liquefy for 15–30 min at 37°C, and up to 2 ml of liquified semen was layered onto a two-step GM501 gradient system (45%/90%; Gynemed; Sierksdorf, Germany) pre-equilibrated at 37°C. Gradients were centrifuged for 20 min at 400 × g (no break). The 90% pellet was collected, washed in SpermActive medium (Gynemed; composition per manufacturer: NaCl, KCl, MgSO4.7H2O, KH2PO4, 1.77 mM CaCl2.2H2O, D(+)-glucose anhydrous, sodium pyruvate, sodium lactate, EDTA, alanyl-glutamine, essential and non-essential amino acids, 25.71 mM NaHCO3, 15 mM HEPES, 5 g/l human serum albumin, 10 mg/l gentamicin, and phenol red), and incubated for at least 2 h at 37°C, 5% CO2.
# For compound testing, sperm suspensions with 7.5 × 10^6 sperm/ml in SpermActive were treated with either DMSO (vehicle) or 10 µM test compound. For basal and induced hyperactivation conditions, DMSO or progesterone (3 µM), respectively, was added. Samples were incubated for 30 min at 37°C, 5% CO2, before motility analysis.
# Motility was analyzed using a CASA system (CEROSII^TM Animal Motility, software version 1.16; Hamilton Thorne, Beverly, MA, USA), mounted on an Axiolab 5 microscope (Zeiss, Germany), equipped with a TPi-SX Thermal Plate (Tokai Hit; Shizuoka-ken, Japan) and a JAI CM-040-GE CCD camera (JAI; Tokyo, Japan). Leja slides (20 µm chamber depth; Leja Products B.V., Nieuw-Vennep, The Netherlands) were pre-warmed to 37°C, cleaned with lens paper, and loaded by capillary action with 6 µl sperm suspension; capillary correction was set to 1.3. Sperm tracks were recorded at 37°C using a 10× negative-phase objective, acquiring 60 frames at 60 Hz with 4 ms exposure and gain set to 600. For each sample and condition, 300–500 motile sperm from at least 10 non-overlapping fields were analyzed. Hyperactive sperm were identified using the SORT function with the following Boolean argument: VCL > 150 µm/s and LIN < 50% and ALH > 7 µm. For each sample and condition, the percentage of hyperactive sperm was normalized to the percentage of motile sperm, and the mean of two technical duplicates was reported.
# Statistical analysis was performed using GraphPad Prism 10 for Windows (version 10.6.1). Data normality was assessed using Shapiro–Wilk test. Differences between basal and induced hyperactivation were evaluated using a paired t-test, with effective pairing confirmed across all comparisons. P < 0.05 was considered statistically significant.
smiles,measurement,setting,value
CC1CCCN(C(=O)c2ccccc2C(=O)c2ccccc2)C1 (stereo not drawn) [Compound 4],IC50,[1],1200 nM
same,"effect on melting temperature / thermal stability of ABHD2^L33-E425 (DSF), in words","ABHD2^L33–E425; 10 µM compound, 30 min pre-incubation",increased melting temperature
same,ΔTm shift for ABHD2^L33-425 determined by DSF,ABHD2^L33–E425; purified protein,14 °C
same,inhibition of ABHD11,human ABHD11,no detectable inhibition
same,effect on progesterone-induced hyperactivation,human sperm; 3 µM progesterone,not affected
same,effect on basal hyperactivation,human sperm,No statistically significant differences; also recorded: did not affect
